Experimental findings from DBAASP are described below.

Common to all, as to experiment: ≥ marks a high value that may be exact or a test limit, other limits are often not marked, values filed in µg/mL are converted to µM
In experiment [1] the test system is Klebsiella pneumoniae ATCC 10031.
Experiment [2] has as its system Bacillus subtilis ATCC 6633.
For experiment [3], the system named is Staphylococcus aureus ATCC 6538P.
Experiment [4] has as its system Micrococcus luteus ATCC 10240.
The test system of experiment [5] is Staphylococcus epidermidis ATCC 12228.
Experiment [6] has as its system Shigella dysenteriae ATCC 9752.
Experiment [7] has as its system Salmonella enterica subsp. enterica serovar Typhimurium ATCC 14028.
Experiment [8] relates to Escherichia coli ATCC 25922.
The subject of experiment [9] is Pseudomonas aeruginosa ATCC 27853.
The test system of experiment [10] is Pseudomonas aeruginosa Ps4.
Another experiment has as its system Escherichia coli K-12.
The test system of experiment [11] is Candida albicans ATCC 90028.
For experiment [12], the system named is Staphylococcus aureus ATCC 6538.
Experiment [13] deals with Staphylococcus aureus ATCC 43300.
For experiment [14], the system named is Escherichia coli ATCC 8739.
Experiment [15] has as its system Staphylococcus aureus ATCC 25923.

Molecules are shown by their SMILES. ≈ marks a conversion by molar mass, not a printed value. Some results are limits rather than exact numbers.

With `CC(C)C[C@H](NC(=O)[C@H](Cc1c[nH]c2ccccc12)NC(=O)[C@H](CCCCN)NC(=O)[C@H](Cc1ccccc1)NC(=O)[C@H](CC(C)C)NC(=O)[C@H](Cc1c[nH]c2ccccc12)NC(=O)[C@H](CCCCN)NC(=O)[C@H](CC(C)C)NC(=O)[C@@H](N)Cc1ccccc1)C(=O)N[C@@H](CCCCN)C(=O)N[C@@H](CCCCN)C(N)=O` [FLKWLFKWLKK], the minimal inhibitory concentration (MIC) in [1] was at least 32.5 µM; in [2], 4.1 µM (≈ 6.3 µg/mL); in experiment [3], 8.13 µM (≈ 12.5 µg/mL); in [4] it was 2.02 µM (≈ 3.1 µg/mL); in [5], 8.13 µM (≈ 12.5 µg/mL); in experiment [6], 16.3 µM (≈ 25 µg/mL). For the same compound, the values for the MIC in [7], in experiment [8] and in [9] were 130 µM (≈ 200 µg/mL), 32.5 µM (≈ 50 µg/mL) and 16.3 µM (≈ 25 µg/mL), respectively.
On to `CC(C)C[C@H](NC(=O)[C@H](Cc1c[nH]c2ccccc12)NC(=O)[C@H](Cc1c[nH]c2ccccc12)NC(=O)[C@H](CC(C)C)NC(=O)[C@@H](N)Cc1ccccc1)C(=O)N[C@@H](Cc1ccccc1)C(=O)N[C@@H](CCCCN)C(=O)N[C@@H](Cc1c[nH]c2ccccc12)C(=O)N[C@@H](C)C(=O)N[C@@H](Cc1c[nH]c2ccccc12)C(=O)N[C@@H](CCCCN)C(N)=O` [FLWWLFKWAWK], for which the MIC was at least 124 µM in experiment [1]; 1.92 µM (≈ 3.1 µg/mL) in experiment [2]; 3.91 µM (≈ 6.3 µg/mL) in experiment [3]; 1.92 µM (≈ 3.1 µg/mL) in experiment [4]; 1.92 µM (≈ 3.1 µg/mL) in experiment [5]; at least 124 µM in [6]. Also, the MIC in [7], in experiment [8] and in experiment [9] was above 124 µM throughout.
For `CC[C@H](C)[C@H](NC(=O)[C@H](CCCN=C(N)N)NC(=O)[C@@H](NC(=O)[C@H](CC(N)=O)NC(=O)[C@H](CCCN=C(N)N)NC(=O)[C@H](CCC(N)=O)NC(=O)[C@H](Cc1c[nH]c2ccccc12)NC(=O)[C@H](CCC(N)=O)NC(=O)[C@@H](N)Cc1ccccc1)[C@@H](C)CC)C(=O)N[C@@H](CCCN=C(N)N)C(=O)N[C@@H](CCCN=C(N)N)C(N)=O` [FQWQRNIRIRR], the minimal inhibitory concentration (MIC) in experiment [10] was at least 159 µM.
Still for that read-out and setting: next, `CC[C@H](C)[C@H](NC(=O)[C@H](CC(N)=O)NC(=O)[C@H](CCCN=C(N)N)NC(=O)[C@H](CCC(N)=O)NC(=O)[C@H](Cc1c[nH]c2ccccc12)NC(=O)[C@@H](N)Cc1ccccc1)C(=O)N[C@@H](CCCN=C(N)N)C(=O)N[C@@H](CCCCN)C(=O)N[C@H](C(=O)N[C@@H](CCCN=C(N)N)C(=O)N[C@@H](CCCN=C(N)N)C(=O)N[C@@H](CCCN=C(N)N)C(N)=O)C(C)C` [FWQRNIRKVRRR]: at least 146 µM; `CC[C@H](C)[C@H](NC(=O)[C@H](CC(N)=O)NC(=O)[C@H](CCCN=C(N)N)NC(=O)[C@H](CCC(N)=O)NC(=O)[C@H](Cc1c[nH]c2ccccc12)NC(=O)[C@@H](N)Cc1ccccc1)C(=O)N[C@@H](CCCN=C(N)N)C(=O)N[C@@H](CCCCN)C(=O)N[C@H](C(=O)N[C@@H](CCCN=C(N)N)C(=O)N[C@@H](CCCN=C(N)N)C(N)=O)C(C)C` [FWQRNIRKVRR]: at least 160 µM.
Compound `CC[C@H](C)[C@H](NC(=O)[C@H](CC(N)=O)NC(=O)[C@H](CCCN=C(N)N)NC(=O)[C@H](CCC(N)=O)NC(=O)[C@H](Cc1c[nH]c2ccccc12)NC(=O)[C@@H](N)Cc1ccccc1)C(=O)N[C@@H](Cc1ccc(O)cc1)C(=O)N[C@@H](CCCCN)C(=O)N[C@H](C(=O)N[C@@H](CCCN=C(N)N)C(N)=O)C(C)C` [FWQRNIYKVR] yielded a minimal inhibitory concentration (MIC) in experiment [10] of at least 177 µM.
The compound `CC(C)[C@H](NC(=O)[C@H](CCCCN)NC(=O)[C@H](CCCN=C(N)N)NC(=O)[C@H](Cc1c[nH]c2ccccc12)NC(=O)[C@H](CC(N)=O)NC(=O)[C@H](CCCN=C(N)N)NC(=O)[C@H](CCC(N)=O)NC(=O)[C@H](Cc1c[nH]c2ccccc12)NC(=O)[C@@H](N)Cc1ccccc1)C(=O)N[C@@H](CCCN=C(N)N)C(N)=O` [FWQRNWRKVR] had an MIC in experiment [10] of at least 169 µM.
`CC[C@H](C)[C@H](NC(=O)[C@H](C)NC(=O)[C@H](CCC(N)=O)NC(=O)[C@@H](NC(=O)[C@@H](NC(=O)[C@H](CCCN=C(N)N)NC(=O)[C@H](CCCCN)NC(=O)[C@H](Cc1ccccc1)NC(=O)CN)[C@@H](C)CC)C(C)C)C(=O)N[C@@H](CCCCN)C(=O)N[C@@H](CC(=O)O)C(=O)N[C@@H](Cc1ccccc1)C(=O)N[C@@H](CC(C)C)C(=O)N[C@@H](CCCN=C(N)N)C(=O)N[C@@H](CC(N)=O)C(=O)N[C@@H](CC(C)C)C(=O)N[C@H](C(N)=O)C(C)C` [GFKRIVQAIKDFLRNLV] had an MIC with Escherichia coli K-12 of at least 60 µM.
Consider `CC[C@H](C)[C@H](NC(=O)[C@H](CCCCN)NC(=O)[C@@H](NC(=O)[C@H](CO)NC(=O)[C@H](CC(=O)O)NC(=O)[C@H](Cc1c[nH]c2ccccc12)NC(=O)[C@H](CC(C)C)NC(=O)CN)[C@@H](C)CC)C(=O)N[C@@H](C)C(=O)NCC(=O)N[C@@H](CCCCN)C(=O)N[C@@H](CCCCN)C(=O)N[C@@H](CC(C)C)C(=O)N[C@@H](Cc1ccccc1)C(=O)N[C@H](C(=O)N[C@@H](CC(N)=O)C(=O)N[C@H](C(=O)N[C@@H](CC(C)C)C(=O)N[C@@H](CC(=O)O)C(=O)N[C@@H](CCCCN)C(=O)N[C@H](C(=O)N[C@@H](CCCN=C(N)N)C(=O)N[C@H]1CSSC[C@@H](C(=O)O)NC(=O)CNC(=O)CNC(=O)[C@H](C)NC(=O)[C@H](C(C)C)NC(=O)[C@H](CCCCN)NC1=O)[C@@H](C)CC)C(C)C)C(C)C` [GLWDSIKIAGKKLFVNVLDKIRCKVAGGC], for which the minimum inhibitory concentration (MIC) in experiment [11] is at least 100 µM; in experiment [12], 3.1 µM (≈ 9.71 µg/mL); in experiment [13], 12.5 µM (≈ 39.1 µg/mL); in experiment [14], 12.5 µM (≈ 39.1 µg/mL).
For `CC(C)C[C@H](NC(=O)[C@H](CC(C)C)NC(=O)[C@H](CCCCN)NC(=O)[C@H](CC(C)C)NC(=O)[C@H](CC(C)C)NC(=O)[C@H](Cc1c[nH]c2ccccc12)NC(=O)[C@H](CCCCN)NC(=O)[C@H](CC(C)C)NC(=O)[C@H](CC(C)C)NC(=O)[C@H](CCCCN)NC(=O)[C@H](CCCCN)NC(=O)[C@@H](N)CC(C)C)C(=O)N[C@@H](CCCCN)C(N)=O` [LKKLLKWLLKLLK], the MIC in experiment [1] is at least 122 µM; in experiment [2], 1.89 µM (≈ 3.1 µg/mL); in experiment [3] it was 7.63 µM (≈ 12.5 µg/mL); in experiment [4], 1.89 µM (≈ 3.1 µg/mL); in experiment [5], 7.63 µM (≈ 12.5 µg/mL); in [6], at least 122 µM. Also, the minimal inhibitory concentration (MIC) in experiment [7], in experiment [8] and in experiment [9] was above 122 µM each time.
On to `CC(C)C[C@H](NC(=O)[C@H](CC(C)C)NC(=O)[C@H](CCCCN)NC(=O)[C@H](CC(C)C)NC(=O)[C@H](CC(C)C)NC(=O)[C@H](Cc1c[nH]c2ccccc12)NC(=O)[C@H](CCCCN)NC(=O)[C@H](CC(C)C)NC(=O)[C@H](CC(C)C)NC(=O)[C@H](CCCCN)NC(=O)[C@H](CC(C)C)NC(=O)[C@@H](N)CC(C)C)C(=O)N[C@@H](CCCCN)C(N)=O` [LLKLLKWLLKLLK], for which the minimum inhibitory concentration (MIC) was at least 123 µM in experiment [1]; 3.88 µM (≈ 6.3 µg/mL) in experiment [2]; 15.4 µM (≈ 25 µg/mL) in experiment [3]; 3.88 µM (≈ 6.3 µg/mL) in experiment [4]; 30.8 µM (≈ 50 µg/mL) in experiment [5]; at least 123 µM in [6]. The minimal inhibitory concentration (MIC) in [7], in experiment [8] and in [9] was above 123 µM each time.
Consider `CSCC[C@H](N)C(=O)N[C@@H](C)C(=O)N[C@@H](CCCN=C(N)N)C(=O)N[C@@H](CC(N)=O)C(=O)N[C@@H](CCCCN)C(=O)N1CCC[C@H]1C(=O)N[C@@H](CC(C)C)C(=O)NCC(=O)N[C@@H](CCCCN)C(=O)N[C@@H](CCCCN)C(=O)N[C@@H](CC(C)C)C(=O)N[C@@H](CCCN=C(N)N)C(=O)N[C@@H](CC(C)C)C(=O)N[C@@H](C)C(=O)N[C@@H](C)C(=O)N[C@@H](C)C(=O)N[C@@H](Cc1ccccc1)C(=O)N[C@@H](CCCCN)C(=O)O` [MARNKPLGKKLRLAAAFK], for which the minimum inhibitory concentration (MIC) in experiment [14] was at least 127 µM; in experiment [15], above 127 µM.
As for `CSCC[C@H](N)C(=O)N[C@@H](CCCCN)C(=O)N[C@@H](CCCCN)C(=O)N[C@@H](CC(C)C)C(=O)N[C@@H](Cc1ccccc1)C(=O)N[C@@H](C)C(=O)N[C@@H](C)C(=O)N[C@@H](CC(C)C)C(=O)N[C@@H](C)C(=O)N[C@@H](CC(C)C)C(=O)N[C@@H](C)C(=O)N[C@@H](C)C(=O)N[C@H](C(=O)N[C@H](C(=O)N[C@@H](C)C(=O)N1CCC[C@H]1C(=O)N[C@H](C(=O)N[C@@H](Cc1c[nH]c2ccccc12)C(=O)O)C(C)C)C(C)C)C(C)C` [MKKLFAALALAAVVAPVW], the figures for the minimal inhibitory concentration (MIC) in experiment [14] and in [15] were at least 135 µM and above 135 µM, respectively.
Take `CC(C)C[C@H](NC(=O)[C@H](CCCCN)NC(=O)[C@H](CCCCN)NC(=O)[C@H](CCCN=C(N)N)NC(=O)[C@H](CCCN=C(N)N)NC(=O)[C@H](CO)NC(=O)[C@H](CCC(N)=O)NC(=O)[C@H](Cc1ccc(O)cc1)NC(=O)[C@H](Cc1ccccc1)NC(=O)[C@H](CCC(N)=O)NC(=O)[C@H](CO)NC(=O)[C@H](CCC(=O)O)NC(=O)[C@H](CCCN=C(N)N)NC(=O)[C@@H](N)CC(N)=O)C(=O)N[C@@H](CO)C(=O)N[C@@H](CO)C(=O)N[C@@H](CCC(N)=O)C(=O)N[C@H](C(=O)O)C(C)C` [NRESQFYQSRRKKLSSQV]: the MIC in [14] was at least 114 µM; in [15], above 114 µM.

One may read the MIC as the lowest concentration that inhibits growth of the organism.
